Reference: PMC8016481, “Tachykinin signaling inhibits task-specific behavioral responsiveness in honeybee workers” (eLife, 2021)
“Also recorded” adds a separate entry of the source.

Columns and labels:
[1] = system: honeybee TRPR; test: Competitive binding of TRPs to TRPR in HEK293 cells (displacement of TAMRA-TRP2/TAMRA-TRP3); design: species or system Apis mellifera; conditions: for competitive binding (residual TAMRA-TRP binding): HEK293
[2] = system: worker bees (Apis mellifera ligustica); test: Proboscis extension response (PER) after TRP2 injection; type: in vivo; conditions: for reduction of SRS vs ddH2O, Z: Mann-Whitney U test; for PER ratio: 1 μl of 1 μg/μl into head, 1 hr after injection
Experimental: To investigate the sucrose responsiveness, bees were assayed using an ascending order of sucrose concentrations: 0.1%, 0.3%, 1%, 3%, 10%, and 30% (weight/weight). A small droplet of each solution was touched to the bees’ antennae for 3 s and the extension of the proboscis was monitored during this time. The interval between each sucrose solution trial was 5 min to exclude sensitization or habituation effects. The total number of PER responses after stimulation with the six different sucrose concentrations was combined into an SRS of a bee ([Pankiw et al., 2001]; [Scheiner et al., 2002]; [Scheiner et al., 2003]). The SRSs of the three behavioral phenotypes in the same species were compared using Kruskal-Wallis tests with Bonferroni correction. Pairwise Mann-Whitney U tests were used for comparing the same phenotype from two honeybee species. The sucrose responsiveness for specific sucrose concentrations was further compared between different groups with independent chi-square tests.
To test pollen stimulation, fresh pollen loads that had been removed from the leg of randomly selected PFs of the test group were used: AML were tested with pollen collected by AML foragers and ACC with pollen collected by ACC foragers. These loads contained a mixture of different pollen, predominated by black locust (R. pseudoacacia). As a control for mechanical stimulation, each bee had both antennae first touched with a piece of filter paper and spontaneous responders were excluded. Subsequently, both antennae of each bee were gently touched with a pollen load and PER responses were recorded. The pollen responsiveness was compared with independent chi-square tests between different groups.
To test responsiveness to larva, 1-day-old larvae from each honeybee species were collected, briefly rinsed in distilled water to remove royal jelly residue and dried on a filter paper. As before, both antennae of bees were touched with a piece of filter paper first and spontaneous responders were excluded, then PERs in response to a larva touching the antennae were recorded. The responsiveness to larvae was compared with independent chi-square tests between different groups. Statistical analyses were conducted using SPSS Statistics 20.0 (IBM, USA).
To confirm the function of TRP on task-specific responsiveness, NBs, PFs, and NFs of AML were injected with TRP2 and tested for their PER response to sucrose solution, pollen, and larva. About 150 bees of each behavioral phenotype were collected in the morning, then harnessed, fed and placed in a dark incubator as described in 'Comparative PER experiments' section. […] Bees injected with ddH2O were used as control. All injected bees were put back to the dark incubator and 1 hr after injection all surviving bees were assayed for their PER to stimulations of sucrose solution, pollen, and larva as described in 'Comparative PER experiments' section. Each experiment was performed with a new set of bees containing about 55 individuals per experimental and control group.
The sucrose responsiveness was further compared between different groups at each specific sucrose concentration with independent chi-square tests. […] All statistical analyses were performed with SPSS Statistics 20.0 (IBM).

[3] = system: TRPR

ALMGFQGVRa [TRP2]
competitive binding (residual TAMRA-TRP binding) ([1]; Log (M) -4, replicate 1): 6.8655
competitive binding (residual TAMRA-TRP binding) ([1]; Log (M) -4, replicate 2): 5.4421
competitive binding (residual TAMRA-TRP binding) ([1]; Log (M) -4, replicate 3): 6.7148
competitive binding (residual TAMRA-TRP binding) ([1]; Log (M) -5, replicate 1): 5.4278
competitive binding (residual TAMRA-TRP binding) ([1]; Log (M) -5, replicate 2): 4.8584
competitive binding (residual TAMRA-TRP binding) ([1]; Log (M) -5, replicate 3): 7.2943
competitive binding (residual TAMRA-TRP binding) ([1]; Log (M) -6, replicate 1): 7.7659
competitive binding (residual TAMRA-TRP binding) ([1]; Log (M) -6, replicate 2): 5.3036
competitive binding (residual TAMRA-TRP binding) ([1]; Log (M) -6, replicate 3): 8.6345
competitive binding (residual TAMRA-TRP binding) ([1]; Log (M) -7, replicate 1): 18.9281
competitive binding (residual TAMRA-TRP binding) ([1]; Log (M) -7, replicate 2): 12.1701
competitive binding (residual TAMRA-TRP binding) ([1]; Log (M) -7, replicate 3): 11.2282
competitive binding (residual TAMRA-TRP binding) ([1]; Log (M) -8, replicate 1): 39.3417
competitive binding (residual TAMRA-TRP binding) ([1]; Log (M) -8, replicate 2): 38.9933
competitive binding (residual TAMRA-TRP binding) ([1]; Log (M) -8, replicate 3): 33.9876
competitive binding (residual TAMRA-TRP binding) ([1]; Log (M) -9, replicate 1): 62.0505
competitive binding (residual TAMRA-TRP binding) ([1]; Log (M) -9, replicate 2): 61.6487
competitive binding (residual TAMRA-TRP binding) ([1]; Log (M) -9, replicate 3): 64.6985
competitive binding (residual TAMRA-TRP binding) ([1]; Log (M) -10, replicate 1): 72.1434
competitive binding (residual TAMRA-TRP binding) ([1]; Log (M) -10, replicate 2): 80.3662
competitive binding (residual TAMRA-TRP binding) ([1]; Log (M) -10, replicate 3): 73.4408
competitive binding (residual TAMRA-TRP binding) ([1]; Log (M) -11, replicate 1): 96.7383
competitive binding (residual TAMRA-TRP binding) ([1]; Log (M) -11, replicate 2): 91.1557
competitive binding (residual TAMRA-TRP binding) ([1]; Log (M) -11, replicate 3): 93.6625
competitive binding (residual TAMRA-TRP binding) ([1]; Log (M) -12, replicate 1): 92.6094
competitive binding (residual TAMRA-TRP binding) ([1]; Log (M) -12, replicate 2): 98.3333
competitive binding (residual TAMRA-TRP binding) ([1]; Log (M) -12, replicate 3): 97.4974
affinity of TRPR, TRP2 compared with TRP3 ([1]; competitive binding assays, HEK293 and Sf21 cells): stronger binding affinity to the receptor TRPR than TRP3; also recorded: higher for TRP2 than for TRP3; also recorded: higher affinity to TRPR
effect on larva responsiveness vs ddH2O, χ^2 ([2]; NBs, chi-square test): 6.1
effect on larva responsiveness ([2]; NBs, vs ddH2O): significantly affected the responsiveness of NBs
effect on sucrose responsiveness ([2]; NBs, vs ddH2O): did not show significant responsiveness changes to sucrose
effect on larva responsiveness ([2]; NFs and PFs, vs ddH2O): not NFs or PFs
reduction of SRS vs ddH2O, Z ([2]; NFs): 2.3
effect on sucrose responsiveness ([2]; NFs, vs ddH2O): significantly reducing PER responses to all sucrose concentrations except 0.1%
reduction of SRS vs ddH2O, Z ([2]; PFs): 2.2
decrease of pollen responsiveness vs ddH2O, χ^2 ([2]; PFs, chi-square test): 6.7
effect on pollen responsiveness ([2]; PFs, vs ddH2O): significantly decreased responsiveness to pollen loads
effect on sucrose responsiveness ([2]; PFs, vs ddH2O): significantly reducing PER responses to all sucrose concentrations used
PER ratio ([2]; nectar foragers, larva stimulus): 11.54%
PER ratio ([2]; nectar foragers, pollen stimulus): 15.38%
PER ratio ([2]; nectar foragers, sucrose 0.1%): 10.34%
PER ratio ([2]; nectar foragers, sucrose 0.3%): 10.34%
PER ratio ([2]; nectar foragers, sucrose 1.0%): 12.07%
PER ratio ([2]; nectar foragers, sucrose 3.0%): 13.79%
PER ratio ([2]; nectar foragers, sucrose 10.0%): 20.69%
PER ratio ([2]; nectar foragers, sucrose 30.0%): 25.86%
PER ratio ([2]; nurse bees, larva stimulus): 18.18%
PER ratio ([2]; nurse bees, pollen stimulus): 12.73%
PER ratio ([2]; nurse bees, sucrose 0.1%): 15.38%
PER ratio ([2]; nurse bees, sucrose 0.3%): 19.23%
PER ratio ([2]; nurse bees, sucrose 1.0%): 25.00%
PER ratio ([2]; nurse bees, sucrose 3.0%): 30.77%
PER ratio ([2]; nurse bees, sucrose 10.0%): 40.38%
PER ratio ([2]; nurse bees, sucrose 30.0%): 48.08%
PER ratio ([2]; pollen foragers, larva stimulus): 22.64%
PER ratio ([2]; pollen foragers, pollen stimulus): 16.98%
PER ratio ([2]; pollen foragers, sucrose 0.1%): 16.98%
PER ratio ([2]; pollen foragers, sucrose 0.3%): 20.75%
PER ratio ([2]; pollen foragers, sucrose 1.0%): 22.64%
PER ratio ([2]; pollen foragers, sucrose 3.0%): 28.30%
PER ratio ([2]; pollen foragers, sucrose 10.0%): 32.08%
PER ratio ([2]; pollen foragers, sucrose 30.0%): 47.17%
intracellular Ca2+ levels [3]: rose sharply
